For four compounds, remaining activity results are on record in publication PMC5564600 (Oncotarget, 2017).

Holding throughout (assay): biochemical
Common to all, as to assay type: binding

Assay [1] has as its target T1, panel of 442 kinases (Homo sapiens, UniProt P17948).
T1 construct: purchased Ambit Biosciences (scanMAXX KINOMEscan)
To be noted: FLT1; for remaining activity at 1 µM: read-out: % of control at 1 µM.

Assay [2] has as its target T2, panel of 442 kinases (Homo sapiens, UniProt Q9BYT3).
T2 construct: purchased Ambit Biosciences (scanMAXX KINOMEscan)
To be noted: kinase STK33; for remaining activity at 1 µM: read-out: STK33 (% of control at 1 µM).

For assay [3], the target named is T3, panel of 442 kinases (Homo sapiens, UniProt Q9UHD2).
T3 construct: purchased Ambit Biosciences (scanMAXX KINOMEscan)
T3 sequence (Q9UHD2 1-729): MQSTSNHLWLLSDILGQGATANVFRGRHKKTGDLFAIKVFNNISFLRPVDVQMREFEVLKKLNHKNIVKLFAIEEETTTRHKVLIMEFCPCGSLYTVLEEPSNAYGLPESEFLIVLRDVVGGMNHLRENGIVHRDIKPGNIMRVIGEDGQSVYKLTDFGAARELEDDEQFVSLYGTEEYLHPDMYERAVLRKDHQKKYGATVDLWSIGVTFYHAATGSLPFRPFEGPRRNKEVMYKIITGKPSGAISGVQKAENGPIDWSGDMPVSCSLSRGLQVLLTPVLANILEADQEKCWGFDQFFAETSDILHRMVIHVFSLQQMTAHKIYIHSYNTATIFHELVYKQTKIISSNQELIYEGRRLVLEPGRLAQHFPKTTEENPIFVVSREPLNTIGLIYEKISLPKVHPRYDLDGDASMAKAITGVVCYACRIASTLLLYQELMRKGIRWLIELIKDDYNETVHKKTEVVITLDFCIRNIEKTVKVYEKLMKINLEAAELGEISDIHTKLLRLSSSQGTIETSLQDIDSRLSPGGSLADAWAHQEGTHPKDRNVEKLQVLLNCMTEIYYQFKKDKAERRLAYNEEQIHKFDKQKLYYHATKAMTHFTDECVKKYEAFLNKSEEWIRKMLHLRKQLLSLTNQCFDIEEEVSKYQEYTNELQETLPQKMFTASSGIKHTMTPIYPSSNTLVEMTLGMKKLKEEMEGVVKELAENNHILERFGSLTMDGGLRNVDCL
To be noted: kinase TBK1; for remaining activity at 1 µM: read-out: TBK1 (% of control at 1 µM).

In assay [4] the target is T4, panel of 442 kinases (Homo sapiens, UniProt P09769).
T4 construct: purchased Ambit Biosciences (scanMAXX KINOMEscan)
T4 sequence (P09769 whole entry): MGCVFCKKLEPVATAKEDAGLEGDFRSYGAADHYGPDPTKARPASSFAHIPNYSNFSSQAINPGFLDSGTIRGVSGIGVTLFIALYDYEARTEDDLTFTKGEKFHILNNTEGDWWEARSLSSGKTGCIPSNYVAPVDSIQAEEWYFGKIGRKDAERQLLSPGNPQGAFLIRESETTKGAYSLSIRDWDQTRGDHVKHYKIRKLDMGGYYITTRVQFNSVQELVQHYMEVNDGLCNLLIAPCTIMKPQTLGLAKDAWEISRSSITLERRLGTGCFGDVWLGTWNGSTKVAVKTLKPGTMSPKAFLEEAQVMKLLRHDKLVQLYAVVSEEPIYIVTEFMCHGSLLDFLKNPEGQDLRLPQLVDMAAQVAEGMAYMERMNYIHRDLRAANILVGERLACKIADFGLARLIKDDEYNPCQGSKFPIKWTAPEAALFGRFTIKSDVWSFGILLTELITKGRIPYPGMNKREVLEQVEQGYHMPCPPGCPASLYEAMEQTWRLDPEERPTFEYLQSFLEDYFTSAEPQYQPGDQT
To be noted: FGR; for remaining activity at 1 µM: read-out: % of control at 1 µM.

Assay [5] addresses T5, panel of 442 kinases (Homo sapiens, UniProt P31152).
T5 construct: purchased Ambit Biosciences (scanMAXX KINOMEscan)
To be noted: ERK4; for remaining activity at 1 µM: read-out: % of control at 1 µM.

Assay [6] has as its target T6, panel of 442 kinases (Homo sapiens, UniProt P41743).
T6 construct: purchased Ambit Biosciences (scanMAXX KINOMEscan)
T6 sequence (P41743 1-596): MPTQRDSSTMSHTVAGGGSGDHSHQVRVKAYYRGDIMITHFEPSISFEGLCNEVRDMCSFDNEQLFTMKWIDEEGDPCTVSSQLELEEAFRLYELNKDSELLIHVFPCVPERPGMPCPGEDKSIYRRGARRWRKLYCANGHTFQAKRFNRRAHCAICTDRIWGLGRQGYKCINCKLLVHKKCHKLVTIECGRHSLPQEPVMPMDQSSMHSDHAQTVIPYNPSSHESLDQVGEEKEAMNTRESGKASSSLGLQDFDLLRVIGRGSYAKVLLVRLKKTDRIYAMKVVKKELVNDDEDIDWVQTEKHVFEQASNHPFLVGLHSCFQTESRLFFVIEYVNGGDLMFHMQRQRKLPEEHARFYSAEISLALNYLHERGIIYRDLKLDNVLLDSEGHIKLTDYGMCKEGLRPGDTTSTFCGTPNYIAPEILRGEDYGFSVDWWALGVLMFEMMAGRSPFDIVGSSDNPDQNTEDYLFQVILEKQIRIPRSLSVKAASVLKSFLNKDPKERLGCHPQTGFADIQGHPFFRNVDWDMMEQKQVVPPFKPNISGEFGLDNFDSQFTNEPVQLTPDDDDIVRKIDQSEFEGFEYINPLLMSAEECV
To be noted: kinase PRKCI; for remaining activity at 1 µM: read-out: PRKCI (% of control at 1 µM).

In assay [7] the target is T7, panel of 442 kinases (Homo sapiens, UniProt Q9H2K8).
T7 construct: purchased Ambit Biosciences (scanMAXX KINOMEscan)
T7 sequence (Q9H2K8 1-898): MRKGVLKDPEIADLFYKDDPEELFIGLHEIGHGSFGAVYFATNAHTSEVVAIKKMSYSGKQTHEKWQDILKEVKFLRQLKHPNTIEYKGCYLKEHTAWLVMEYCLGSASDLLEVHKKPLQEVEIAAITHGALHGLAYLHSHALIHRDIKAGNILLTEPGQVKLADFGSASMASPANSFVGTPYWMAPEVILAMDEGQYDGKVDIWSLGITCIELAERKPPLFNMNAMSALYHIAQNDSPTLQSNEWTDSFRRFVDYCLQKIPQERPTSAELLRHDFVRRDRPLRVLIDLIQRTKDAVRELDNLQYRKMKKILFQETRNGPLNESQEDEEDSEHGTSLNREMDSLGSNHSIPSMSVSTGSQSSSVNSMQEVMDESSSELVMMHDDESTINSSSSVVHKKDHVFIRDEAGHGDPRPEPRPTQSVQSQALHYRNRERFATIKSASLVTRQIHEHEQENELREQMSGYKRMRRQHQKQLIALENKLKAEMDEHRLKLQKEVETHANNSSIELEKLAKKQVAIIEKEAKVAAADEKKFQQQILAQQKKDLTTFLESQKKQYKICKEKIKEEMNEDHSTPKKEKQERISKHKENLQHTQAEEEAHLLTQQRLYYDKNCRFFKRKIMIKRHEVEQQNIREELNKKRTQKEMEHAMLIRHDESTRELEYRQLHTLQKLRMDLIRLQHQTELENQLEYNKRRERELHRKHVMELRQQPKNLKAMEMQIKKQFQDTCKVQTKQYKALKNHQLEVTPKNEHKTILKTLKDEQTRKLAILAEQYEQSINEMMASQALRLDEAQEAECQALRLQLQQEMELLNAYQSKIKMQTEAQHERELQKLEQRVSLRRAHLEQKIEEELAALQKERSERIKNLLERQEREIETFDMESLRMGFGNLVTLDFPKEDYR
To be noted: kinase TAOK3; for remaining activity at 1 µM: read-out: TAOK3 (% of control at 1 µM).

Where [8] appears, read: 10 µM, read-out: % of control at 10 µM.

T1 sequence (P17948 27-1338): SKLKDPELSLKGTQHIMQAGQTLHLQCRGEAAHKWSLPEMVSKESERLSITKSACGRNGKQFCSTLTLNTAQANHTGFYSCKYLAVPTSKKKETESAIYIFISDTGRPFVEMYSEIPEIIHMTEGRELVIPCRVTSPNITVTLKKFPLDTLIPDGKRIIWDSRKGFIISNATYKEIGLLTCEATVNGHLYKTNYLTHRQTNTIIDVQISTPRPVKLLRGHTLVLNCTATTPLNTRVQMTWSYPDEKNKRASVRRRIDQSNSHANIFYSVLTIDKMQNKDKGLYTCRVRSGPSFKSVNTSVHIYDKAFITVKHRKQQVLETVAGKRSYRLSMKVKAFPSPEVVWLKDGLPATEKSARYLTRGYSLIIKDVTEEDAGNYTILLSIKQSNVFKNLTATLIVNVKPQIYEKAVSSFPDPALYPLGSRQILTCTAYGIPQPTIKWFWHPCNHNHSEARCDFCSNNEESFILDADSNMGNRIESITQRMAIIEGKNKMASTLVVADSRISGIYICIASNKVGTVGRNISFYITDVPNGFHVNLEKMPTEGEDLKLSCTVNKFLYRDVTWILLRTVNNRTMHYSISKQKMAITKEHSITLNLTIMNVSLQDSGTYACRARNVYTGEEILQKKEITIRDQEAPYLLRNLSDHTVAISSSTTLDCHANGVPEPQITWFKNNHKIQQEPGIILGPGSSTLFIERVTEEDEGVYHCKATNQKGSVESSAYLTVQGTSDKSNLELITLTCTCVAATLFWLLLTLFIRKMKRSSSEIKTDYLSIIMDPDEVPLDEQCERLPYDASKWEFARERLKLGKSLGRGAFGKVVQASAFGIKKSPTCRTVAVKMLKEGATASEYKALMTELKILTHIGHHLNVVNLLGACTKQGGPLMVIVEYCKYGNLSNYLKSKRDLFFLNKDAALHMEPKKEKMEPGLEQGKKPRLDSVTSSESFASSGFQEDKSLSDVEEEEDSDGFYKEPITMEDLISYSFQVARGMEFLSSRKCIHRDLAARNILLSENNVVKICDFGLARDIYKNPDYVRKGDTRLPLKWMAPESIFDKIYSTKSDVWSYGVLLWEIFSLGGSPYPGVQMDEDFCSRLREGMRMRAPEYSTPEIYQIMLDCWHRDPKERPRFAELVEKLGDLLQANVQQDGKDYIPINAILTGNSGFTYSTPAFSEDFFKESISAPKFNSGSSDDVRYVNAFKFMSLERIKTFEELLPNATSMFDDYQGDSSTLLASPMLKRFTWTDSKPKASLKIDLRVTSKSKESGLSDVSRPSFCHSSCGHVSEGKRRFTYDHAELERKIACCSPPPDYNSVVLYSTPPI
T2 sequence (Q9BYT3 whole entry): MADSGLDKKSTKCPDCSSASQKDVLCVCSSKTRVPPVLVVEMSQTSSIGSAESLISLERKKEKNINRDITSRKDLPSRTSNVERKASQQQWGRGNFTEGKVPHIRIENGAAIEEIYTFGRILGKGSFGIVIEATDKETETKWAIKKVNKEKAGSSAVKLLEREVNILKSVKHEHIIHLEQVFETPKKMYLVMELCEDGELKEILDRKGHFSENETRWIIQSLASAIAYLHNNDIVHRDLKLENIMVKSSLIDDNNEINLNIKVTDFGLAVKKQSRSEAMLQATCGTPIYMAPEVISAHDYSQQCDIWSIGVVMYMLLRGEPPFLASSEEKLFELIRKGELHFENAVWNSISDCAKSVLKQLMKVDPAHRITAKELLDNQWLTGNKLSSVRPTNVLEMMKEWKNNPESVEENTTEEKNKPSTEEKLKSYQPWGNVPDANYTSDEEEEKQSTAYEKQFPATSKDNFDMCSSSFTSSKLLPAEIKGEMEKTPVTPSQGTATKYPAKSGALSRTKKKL
T5 sequence (P31152 whole entry): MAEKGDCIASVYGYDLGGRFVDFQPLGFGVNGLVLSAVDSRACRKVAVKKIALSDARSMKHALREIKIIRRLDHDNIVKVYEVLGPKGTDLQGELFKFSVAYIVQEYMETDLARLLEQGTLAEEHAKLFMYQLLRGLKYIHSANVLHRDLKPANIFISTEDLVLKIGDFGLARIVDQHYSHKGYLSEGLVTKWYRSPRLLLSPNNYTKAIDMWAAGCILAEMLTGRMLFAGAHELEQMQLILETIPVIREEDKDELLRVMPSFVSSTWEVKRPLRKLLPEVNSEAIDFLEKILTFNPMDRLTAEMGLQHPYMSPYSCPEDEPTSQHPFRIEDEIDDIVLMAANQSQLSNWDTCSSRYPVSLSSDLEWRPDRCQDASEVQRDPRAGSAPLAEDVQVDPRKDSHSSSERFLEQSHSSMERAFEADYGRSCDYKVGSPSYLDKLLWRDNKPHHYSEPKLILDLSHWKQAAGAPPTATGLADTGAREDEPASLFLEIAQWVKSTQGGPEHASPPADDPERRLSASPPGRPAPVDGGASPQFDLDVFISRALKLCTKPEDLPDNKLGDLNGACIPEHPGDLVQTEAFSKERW

In the case of `Nc1cc(C(F)(F)F)c(-c2cc(N3CCOCC3)nc(N3CCOCC3)n2)cn1` [Buparlisib], the remaining activity at 1 µM in assay [1] is 100%; in assay [2], 90%; in assay [3], 99%; in assay [4] it was 100%; in assay [5], 100%; in assay [6], 90%. In assay [7], the remaining activity at 1 µM came out at 89%. The remaining activity at 10 µM in assay [1] (setting [8]) is 100%; in assay [2] (10 µM, read-out: STK33 (% of control at 10 µM)) it was 97%; in assay [3] (10 µM, read-out: TBK1 (% of control at 10 µM)), 100%; in assay [4] (setting [8]), 100%; in assay [5] (setting [8]) it was 100%; in assay [6] (10 µM, read-out: PRKCI (% of control at 10 µM)), 100%. Besides, the remaining activity at 10 µM in assay [7] (10 µM, read-out: TAOK3 (% of control at 10 µM)) was 78%.

Turning to `Cn1c(=O)n(-c2ccc(C(C)(C)C#N)cc2)c2c3cc(-c4cnc5ccccc5c4)ccc3ncc21` [Dactolisib, 2-methyl-2-[4-(3-methyl-2-oxo-8-quinolin-3-yl-2,3-dihydroimidazo[4,5-c]quinolin-1-yl)-phenyl] propionitrile], the remaining activity at 1 µM in assay [1] amounted to 86%; in assay [2], 100%; in assay [3], 93%; in assay [4], 81%; in assay [5], 100%; in assay [6], 86%. In addition, the remaining activity at 1 µM in assay [7] was 100%.

In the case of `FC(F)c1nc2ccccc2n1-c1nc(N2CCOCC2)nc(N2CCOCC2)n1` [ZSTK474, 2-(difluoromethyl)-1-[4,6-di(4-morpholinyl)-1,3,5-triazin-2-yl]-1H-benzimidazole], the remaining activity at 1 µM in assay [1] stood at 100%; in assay [2], 100%; in assay [3], 100%; in assay [4] it was 87%; in assay [5], 85%; in assay [6] it was 100%. Also, the remaining activity at 1 µM in assay [7] was determined as 92%.

With `COc1ncc(-c2ccc3nccc(-c4ccnnc4)c3c2)cc1NS(=O)(=O)c1ccc(F)cc1F` [Omipalisib], the remaining activity at 1 µM in assay [1] was 100%; in assay [2], 100%; in assay [3] it was 100%; in assay [4] it was 84%; in assay [5], 100%; in assay [6], 100%. Besides, the remaining activity at 1 µM in assay [7] came out at 100%.
